Test results reported in ChEMBL document CHEMBL5316342, “Structure-Based Design of Potent Iminosugar Inhibitors of Endoplasmic Reticulum α-Glucosidase I with Anti-SARS-CoV-2 Activity” (J Med Chem, 2023).
Calls of active or inactive are those of the source. The rule behind the calls is not given here.

Assays:
[1] = Inhibition of C-terminal his6-tagged full length recombinant mouse Endoplasmic reticulum alpha-glucosidase 1 (59 to 834 residues) expressed in FreeStyle 293-F cells using trisaccharide as substrate preincubated for 60 mins followed by substrate addition and measured for 90 mins by Amplex Red assay
[2] = Inhibition of mouse recombinant alpha-glucosidase using 4-methylumbelliferyl-[…]-D-glucopyranoside as substrate preincubated for 60 mins followed by substrate addition and measured after 30 mins by fluorescence based analysis
[3] = Cytotoxicity against human A549-ACE2 cells infected with SARS-CoV-2 USA-WA1/2020 assessed as reduction in cell viability at 25 uM measured for 3 days by WST-1 assay relative to control; assay type: toxicity, cell-based; details: a549-ace2, 72 h, time 3 day
[4] = Cytotoxicity against human A549-ACE2 cells infected with SARS-CoV-2 USA-WA1/2020 assessed as reduction in cell viability measured for 3 days by WST-1 assay; assay type: toxicity, cell-based; details: a549-ace2, 72 h, time 3 day
SARS-CoV-2 [5] = test: Antiviral activity against SARS-CoV-2 USA-WA1/2020 infected in human A549-ACE2 cells assessed as reduction in viral burden measured upto 4 days by viral plaque assay; assay type: functional, organism-based; details: Severe acute respiratory syndrome coronavirus 2, USA-WA1/2020, A549-ACE2, 96 h
SARS-CoV-2 [6] = test: Antiviral activity against SARS-CoV-2 USA-WA1/2020 infected in human A549-ACE2 cells assessed as maximum reduction in viral burden up to 100 uM measured upto 4 days by viral plaque assay; assay type: functional; details: Severe acute respiratory syndrome coronavirus 2, time <= 4.0 day

| SMILES | IC50 [1] [nM] | IC50 [2] [nM] | Activity [3] [%] | CC50 [4] [nM] | EC50 (SARS-CoV-2 [5]) [nM] | Activity (SARS-CoV-2 [6]) |
| --- | --- | --- | --- | --- | --- | --- |
| Cc1cc(-c2ccco2)ccc1NCc1ccc(CN2C[C@H](O)[C@@H](O)[C@H](O)[C@H]2CO)cc1 | < 1 | 318 | 82.6 | 29500 | > 25000 |  |
| Cc1cc(NCc2ccc(CN3C[C@H](O)[C@@H](O)[C@H](O)[C@H]3CO)cc2)cc(-c2cccnn2)c1 | 73 | 179 | 73.7 |  |  | inactive |
| O=[N+]([O-])c1cc(-n2cccn2)ccc1NCCCCCCN[C@H]1C[C@](O)(CO)[C@@H](O)[C@H](O)[C@H]1O |  |  | 85.6 | > 100000 |  |  |
| O=[N+]([O-])c1cc(N2[C@@H]3CC[C@H]2COC3)ccc1NCc1ccc(CN2C[C@H](O)[C@@H](O)[C@H](O)[C@H]2CO)cc1 | < 1 | < 1 | 75 | 39800 |  |  |
| OC[C@@H]1[C@@H](O)[C@H](O)[C@@H](O)CN1CCc1ccc(CCNc2cc(O)cc(-c3ncon3)c2)cc1 | 1010 | 295 | 83.8 | > 100000 |  |  |
| Cc1nc2cc(-c3ncccn3)ccc2n1CCCCCCN1C[C@H](O)[C@@H](O)[C@H](O)[C@H]1CO | 78 | 194 | 80.8 | > 100000 | 12200 |  |
| Cc1cc(NCc2cccc(CN3C[C@H](O)[C@@H](O)[C@H](O)[C@H]3CO)c2)cc(-c2ncccn2)c1 | 44 | 66500 | 52.9 |  |  | inactive |
| O=[N+]([O-])c1cc(-c2ccccc2)ccc1NCCCCCCN1C[C@H](O)[C@@H](O)[C@H](O)[C@H]1CO | 57 | < 1 | 100 | > 100000 | 420 |  |
| C[C@@H]1CN(c2ccc(NCc3ccc(CN4C[C@H](O)[C@@H](O)[C@H](O)[C@H]4CO)cc3)c([N+](=O)[O-])c2)C[C@H](C)O1 | 1 | 4 | 51.5 |  |  | inactive |
| O=[N+]([O-])c1cc(NCCCCCCN2C[C@H](O)[C@@H](O)[C@H](O)[C@H]2CO)cc(-c2ccncc2)c1 | 1 | < 1 | 87.2 | 54200 |  |  |
| N#Cc1cc(NCc2cccc(CN3C[C@H](O)[C@@H](O)[C@H](O)[C@H]3CO)c2)cc(C2=COCCO2)c1 | 3 | 2670 | 100 | > 100000 |  |  |
| CCCCN[C@H]1C[C@](O)(CO)[C@@H](O)[C@H](O)[C@H]1O | 29500 |  |  |  |  |  |
| COCCCCCCCCCN1C[C@H](O)[C@@H](O)[C@H](O)[C@H]1CO | 537 | 68 |  |  |  |  |
| OC[C@@H]1[C@@H](O)[C@H](O)[C@@H](O)CN1CCCCCCNc1cc(-c2cccnn2)cc(C2CC2)c1 | 103 | 12 | 100 | > 100000 | 7860 |  |
| O=[N+]([O-])c1cc(-c2noc(C3CCC3)n2)ccc1NCCCCCCN1C[C@H](O)[C@@H](O)[C@H](O)[C@H]1CO | 11 | < 1 | 100 | 40700 | 720 |  |
| CS(=O)(=O)c1cc(Br)cc(NCc2cccc(CN3C[C@H](O)[C@@H](O)[C@H](O)[C@H]3CO)c2)c1 | 19 | 7920 | 100 | > 100000 |  |  |

| SMILES | IC50 [1] [nM] | IC50 [2] [nM] | Activity [3] [%] | CC50 [4] [nM] | EC50 (SARS-CoV-2 [5]) [nM] | Activity (SARS-CoV-2 [6]) |
| --- | --- | --- | --- | --- | --- | --- |
| COCCc1ccc(CCCCCN2C[C@H](O)[C@@H](O)[C@H](O)[C@H]2CO)cc1 | 1160 | 76 |  |  |  |  |
| [N-]=[N+]=Nc1ccc(NCCc2cncc(CCN3C[C@H](O)[C@@H](O)[C@H](O)[C@H]3CO)n2)c([N+](=O)[O-])c1 | 94 | 3 | 38.8 |  |  | inactive |
| OC[C@@H]1[C@@H](O)[C@H](O)[C@@H](O)CN1CCCCCCCCc1ccco1 | 139 | 35 | 95.7 | 35000 | 3360 |  |
| CS(=O)(=O)c1cc(NCc2cccc(CN3C[C@H](O)[C@@H](O)[C@H](O)[C@H]3CO)c2)cc(-c2ccccc2)c1 | 17 | 4600 | 40.8 |  |  | inactive |
| O=[N+]([O-])c1cc(-n2nccn2)ccc1NCCCCCCN[C@H]1C[C@](O)(CO)[C@@H](O)[C@H](O)[C@H]1O | 47 | < 1 |  |  |  |  |
| CS(=O)(=O)c1cc(NCc2ccc(CN3C[C@H](O)[C@@H](O)[C@H](O)[C@H]3CO)cc2)cc(-c2cccnn2)c1 | 21 | 114 | 99.2 | > 100000 |  |  |
| Cc1cc(NCc2cccc(CN3C[C@H](O)[C@@H](O)[C@H](O)[C@H]3CO)n2)cc(-c2ccc[nH]2)c1 | 966 | > 100000 | 54.1 |  |  | inactive |
| [N-]=[N+]=Nc1ccc(NCCCCCCN2C[C@H](O)[C@@H](O)[C@H](O)[C@H]2CO)c([N+](=O)[O-])c1 | 155 | 10 | 100 | > 100000 | 580 |  |
| O=[N+]([O-])c1cc(N2CCOCC2)ccc1NCc1cccc(CN2C[C@H](O)[C@@H](O)[C@H](O)[C@H]2CO)c1 | 99 | 12800 | 36.5 |  |  | inactive |
| COCCCCCCCCCN1C[C@H](O)[C@@H](O)[C@H](O)[C@H]1CO.Cl |  |  | 100 | > 100000 | 3320 |  |
| Cc1nc(-c2ccc(NCCCCCCN3C[C@H](O)[C@@H](O)[C@H](O)[C@H]3CO)c([N+](=O)[O-])c2)no1 | 99 | 3 | 100 | > 100000 | 440 |  |
| [N-]=[N+]=Nc1ccc(NCCOC(=O)NCCN[C@H]2C[C@](O)(CO)[C@@H](O)[C@H](O)[C@H]2O)c([N+](=O)[O-])c1 | 1130 |  |  |  |  |  |
| O=[N+]([O-])c1cc(-c2ccnc(N3CCOCC3)n2)ccc1NCCCCCCN1C[C@H](O)[C@@H](O)[C@H](O)[C@H]1CO | < 1 | < 1 | 58.6 |  |  | inactive |
| OC[C@@H]1[C@@H](O)[C@H](O)[C@@H](O)CN1CCc1ccc(CCNc2cc(O)cc(-c3cccnn3)c2)cc1 | 211 | < 1 | 93.5 | > 100000 |  |  |
| O=[N+]([O-])c1cc(N2C3CCC2COC3)ccc1NCCCCCCN1C[C@H](O)[C@@H](O)[C@H](O)[C@H]1CO | 52 | 30 | 98.9 | > 100000 | 1610 |  |
| OC[C@@H]1[C@@H](O)[C@H](O)[C@@H](O)CN1Cc1ccc(CNc2ccc(N3CCOCC3)cc2)cc1 | 122 | 1580 | 97.6 | > 100000 |  |  |
